According to PubChem BioAssay (NCI):
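The concentration for 50% growth inhibition is given as GI50. TGI denotes the concentration required for complete inhibition of growth.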

Assays:
Test in all cases: NCI anticancer screen, dose series, 384-well format
[1] = tested on: MDA-MB-435 melanoma
[2] = tested on: CAKI-1 renal
[3] = tested on: NCI-H460 NSCLC
[4] = tested on: MOLT-4 leukemia
[5] = tested on: NCI-H522 lung
[6] = tested on: SF-268 CNS
[7] = tested on: HCC-2998 colon
[8] = tested on: UACC-257 melanoma
[9] = tested on: KM12 colon
[10] = tested on: HCT-15 colon
[11] = tested on: UACC-62 melanoma
[12] = tested on: NCI-H322M lung
[13] = tested on: SK-MEL-5 melanoma
[14] = tested on: CCRF-CEM leukemia
[15] = tested on: 786-0 renal
[16] = tested on: SR leukemia
[17] = tested on: HOP-92 NSCLC
[18] = tested on: LOX IMVI melanoma
[19] = tested on: OVCAR-5 ovarian
[20] = tested on: IGROV1 ovarian
[21] = tested on: MCF7 breast
[22] = tested on: M14 melanoma
[23] = tested on: RXF 393 renal
[24] = tested on: SK-MEL-2 melanoma
[25] = tested on: U251 glioblastoma
[26] = tested on: A549 NSCLC
[27] = tested on: MALME-3M melanoma
[28] = tested on: OVCAR-4 ovarian
[29] = tested on: A498 renal
[30] = tested on: HL-60(TB) leukemia
[31] = tested on: SK-OV-3 ovarian
[32] = tested on: NCI-H226 lung
[33] = tested on: SF-539 CNS
[34] = tested on: RPMI-8226 leukemia
[35] = tested on: OVCAR-8 ovarian
[36] = tested on: SK-MEL-28 melanoma
[37] = tested on: K-562 leukemia
[38] = tested on: BT-549 breast
[39] = tested on: SF-295 CNS
[40] = tested on: PC-3 prostate
[41] = tested on: MDA-MB-468 breast
[42] = tested on: TK-10 renal
[43] = tested on: T-47D breast
[44] = tested on: HT29 colon
[45] = tested on: UO-31 renal
[46] = tested on: DU-145 prostate
[47] = tested on: HOP-62 NSCLC
[48] = tested on: ACHN renal
[49] = tested on: HCT-116 colon
[50] = tested on: NCI-H23 lung
[51] = tested on: SNB-75 CNS
[52] = tested on: OVCAR-3 ovarian
[53] = tested on: HS 578T breast
[54] = tested on: EKVX NSCLC
[55] = tested on: SW-620 colon
[56] = tested on: MDA-MB-231 breast
[57] = tested on: NCI/ADR-RES ovarian
[58] = tested on: SN12C renal
[59] = tested on: SNB-19 CNS

Cc1c(Nc2nccc3cc(CN4CC[C@@H](O)C4)cnc23)cccc1-c1cccc(-c2nc3cc(CN4CC[C@@H](C(=O)O)C4)cc(C#N)c3o2)c1C
GI50 [1]: 47.3 nM
TGI [1]: 206 nM
GI50 [2]: 464 nM
TGI [2]: > 100000 nM
GI50 [3]: 193 nM
TGI [3]: 435 nM
GI50 [4]: 171 nM
TGI [4]: 315 nM
GI50 [5]: 118 nM
TGI [5]: 287 nM
GI50 [6]: 371 nM
TGI [6]: 3960 nM
GI50 [7]: 318 nM
TGI [7]: 1250 nM
GI50 [8]: 229 nM
TGI [8]: 1040 nM
GI50 [9]: 69.7 nM
TGI [9]: 679 nM
GI50 [10]: 1530 nM
TGI [10]: 3010 nM
GI50 [11]: 304 nM
TGI [11]: 1850 nM
GI50 [12]: 416 nM
TGI [12]: > 100000 nM
GI50 [13]: 94.8 nM
TGI [13]: 321 nM
GI50 [14]: 147 nM
TGI [14]: 287 nM
GI50 [15]: 334 nM
TGI [15]: 1260 nM
GI50 [16]: 28.9 nM
TGI [16]: 107 nM
GI50 [17]: 297 nM
TGI [17]: 1970 nM
GI50 [18]: 668 nM
TGI [18]: 1860 nM
GI50 [19]: 522 nM
TGI [19]: > 100000 nM
GI50 [20]: 1070 nM
TGI [20]: > 100000 nM
GI50 [21]: 223 nM
TGI [21]: 1430 nM
GI50 [22]: 259 nM
TGI [22]: 866 nM
GI50 [23]: 137 nM
TGI [23]: 390 nM
GI50 [24]: 26.2 nM
TGI [24]: 142 nM
GI50 [25]: 335 nM
TGI [25]: 1150 nM
GI50 [26]: 441 nM
TGI [26]: 2970 nM
GI50 [27]: 127 nM
TGI [27]: 851 nM
GI50 [28]: 459 nM
TGI [28]: 4980 nM
GI50 [29]: 391 nM
TGI [29]: 1490 nM
GI50 [30]: 172 nM
TGI [30]: 314 nM
GI50 [31]: 246 nM
TGI [31]: 1180 nM
GI50 [32]: 449 nM
TGI [32]: 3730 nM
GI50 [33]: 274 nM
TGI [33]: 971 nM
GI50 [34]: 152 nM
TGI [34]: 290 nM
GI50 [35]: 514 nM
TGI [35]: 1830 nM
GI50 [36]: 261 nM
TGI [36]: 1620 nM
GI50 [37]: 205 nM
TGI [37]: 567 nM
GI50 [38]: 140 nM
TGI [38]: 532 nM
GI50 [39]: 416 nM
TGI [39]: 1450 nM
GI50 [40]: 403 nM
TGI [40]: 1750 nM
GI50 [41]: 117 nM
TGI [41]: 310 nM
GI50 [42]: 1660 nM
TGI [42]: > 100000 nM
GI50 [43]: 325 nM
TGI [43]: > 100000 nM
GI50 [44]: 213 nM
TGI [44]: 496 nM
GI50 [45]: 3250 nM
TGI [45]: > 100000 nM

Nc1nc(Cl)nc2c1ncn2C1OC(CO)C(O)C1F (stereo unspecified)
GI50 [46]: 277 nM
GI50 [1]: 261 nM
TGI [1]: > 100000 nM
GI50 [2]: 91.5 nM
GI50 [3]: 177 nM
TGI [3]: 376 nM
GI50 [4]: 14.8 nM
TGI [4]: 28.3 nM
GI50 [5]: 165 nM
TGI [5]: > 28900 nM
GI50 [6]: 170 nM
TGI [6]: 692 nM
GI50 [7]: 34.6 nM
TGI [7]: > 100000 nM
GI50 [8]: 412 nM
GI50 [9]: 323 nM
TGI [9]: > 100000 nM
GI50 [10]: 202 nM
TGI [10]: > 100000 nM
GI50 [47]: 41.9 nM
TGI [47]: 150 nM
GI50 [11]: 208 nM
TGI [11]: 476 nM
GI50 [12]: 1850 nM
TGI [12]: > 100000 nM
GI50 [13]: 61.6 nM
TGI [13]: 160 nM
GI50 [14]: 15.7 nM
TGI [14]: 29.7 nM
GI50 [15]: 97.5 nM
GI50 [16]: 212 nM
TGI [16]: 380 nM
GI50 [17]: 301 nM
TGI [17]: > 100000 nM
GI50 [18]: 306 nM
TGI [18]: 880 nM
GI50 [48]: 122 nM
TGI [48]: 427 nM
GI50 [19]: 515 nM
TGI [19]: > 100000 nM
GI50 [49]: 57.6 nM
TGI [49]: > 100000 nM
GI50 [50]: 37.7 nM
TGI [50]: 114 nM
GI50 [20]: 419 nM
TGI [20]: > 100000 nM
GI50 [51]: 1260 nM
TGI [51]: 7990 nM
GI50 [21]: 200 nM
TGI [21]: > 100000 nM
GI50 [22]: 74.8 nM
TGI [22]: 290 nM
GI50 [23]: 7360 nM
TGI [23]: > 100000 nM
GI50 [24]: 304 nM
TGI [24]: 697 nM
GI50 [25]: 259 nM
TGI [25]: 2700 nM
GI50 [26]: 176 nM
TGI [26]: > 100000 nM
GI50 [52]: 550 nM
TGI [52]: > 100000 nM
GI50 [27]: 375 nM
TGI [27]: > 100000 nM
GI50 [28]: > 100000 nM
TGI [28]: > 100000 nM
GI50 [53]: 430 nM
TGI [53]: > 22800 nM
GI50 [29]: 324 nM
TGI [29]: > 23100 nM
GI50 [30]: 20.5 nM
TGI [30]: 36.8 nM
GI50 [54]: 914 nM
GI50 [31]: 315 nM
TGI [31]: > 100000 nM
GI50 [32]: 775 nM
TGI [32]: 3580 nM
GI50 [55]: 401 nM
TGI [55]: > 100000 nM
GI50 [33]: 612 nM
TGI [33]: 1820 nM
GI50 [34]: 1730 nM
TGI [34]: 3780 nM
GI50 [35]: 31.5 nM
TGI [35]: > 100000 nM
GI50 [36]: 106 nM
TGI [36]: > 100000 nM
GI50 [37]: 80.4 nM
TGI [37]: > 100000 nM
GI50 [38]: 77.4 nM
TGI [38]: 483 nM
GI50 [56]: 346 nM
TGI [56]: > 100000 nM
GI50 [57]: 35.7 nM
TGI [57]: 1240 nM
GI50 [39]: 724 nM
TGI [39]: 1610 nM
GI50 [40]: > 20900 nM
TGI [40]: > 100000 nM
GI50 [58]: 56.1 nM
TGI [58]: 401 nM
GI50 [41]: 253 nM
TGI [41]: 699 nM
GI50 [42]: 532 nM
TGI [42]: > 100000 nM
GI50 [43]: 2850 nM
TGI [43]: > 100000 nM
GI50 [44]: 510 nM
TGI [44]: > 100000 nM
GI50 [59]: 72.6 nM
GI50 [45]: 234 nM
